Here are results for eight compounds from patent publication US9290501B2, “Methods, assays and compounds for treating bacterial infections by inhibiting methylthioinosine phosphorylase” (Albert Einstein College of Medicine, Inc., priority 2010, dated 2016).

Assay [1] addresses T1, PaMTIP (Pseudomonas aeruginosa (strain ATCC 15692 / DSM 22644 / CIP 104116 / JCM 14847 / LMG 12228 / 1C / PRS 101 / PAO1), UniProt Q9HZK1). Kind of assay: biochemical. As to the method:
Assays for slow-onset inhibitors were carried out by adding 1 nM PaMTIP into reaction mixtures at 25° C. containing 100 mM Hepes, pH 7.4, 100 mM phosphate, pH 7.4, 2 mM MTI, 5 mM DTT, 0.5 unit of xanthine oxidase and variable inhibitor concentration. Inhibitors were present at >10 times the enzyme concentration, required to simplify data analysis (24). Assays for MTA inhibition used 200 μM MTI. Controls having no enzyme and no inhibitor were included in all of the inhibition assays. Inhibition constants were obtained by fitting initial rates with variable inhibitor concentrations to equation (1) using GraFit 5 (Erithacus Software):
[formula] where vi is the initial rate in the presence of inhibitor, vo is the initial rate in the absence of inhibitor, Km is the Michaelis constant for MTI, [S] and [I] are MTI and inhibitor concentrations, respectively, and Ki is the inhibition constant. Slow-onset inhibitors display a second phase of tighter binding after reaching a thermodynamic equilibrium with the enzyme. The equilibrium constant for the second binding phase is indicated as Ki*. This constant was obtained by fitting initial final rates and inhibitor concentrations to equation (1) using GraFit 5 (22).

Assay [2] has as its target T2, PfPNP (Plasmodium falciparum (isolate 3D7), UniProt Q8I3X4). The following applies: read-out: dissociation constants; cited from earlier work.
Another assay has as its target PfADA (Plasmodium falciparum (isolate 3D7), UniProt Q8IJA9). The following applies: PfADA deamination; cited from earlier work.
The target in assay [3] is T1, PaMTIP. The assay is classed as biochemical. Conditions: for fold decreases of Kcat/Km in comparison with those of MTI / kcat/Km: PaMTIP; for Km / kcat: PaMTIP phosphorolysis, 100 mM phosphate, pH 7.4, 25° C. As for the experimental part:
Product formation was monitored by conversion of hypoxanthine to uric acid by xanthine oxidase (22). The extinction coefficient of this assay was 12.9 mM^−1cm^−1 at 293 nm. Enzyme activity with adenosine or MTA as substrates was determined by conversion of adenine to 2,8-dihydroxyadenine using the same coupling enzyme (23). Its extinction coefficient at 293 nm was 15.2 mM^−1cm^−1. Reactions were carried out at 25° C. in 1 cm cuvettes, 1 mL volumes of 100 mM Hepes, pH 7.4, 100 mM phosphate, pH 7.4, variable concentrations of nucleoside substrate, 0.5 unit of xanthine oxidase, 5 mM DTT, and appropriate amounts of purified MTIP. Reactions were initiated by addition of enzyme and the initial rates were monitored with a CARY 300 UV-Visable spectrophotometer. Control rates (no PaMTIP) were subtracted from initial rates. Km and kcat values for PaMTIP were obtained by fitting initial rates to the Michaelis-Menten equation using GraFit 5 (Erithacus Software).

For assay [4], the target named is T2, PfPNP. Conditions: cited from earlier work.
Setting [5] is: initial binding phase, 2 mM MTI, 25° C., pH 7.4, values ± S.E., read-out: Ki.
[6] abbreviates: second tighter binding phase of slow-onset inhibition, values ± S.E., read-out: Ki*.

“And” between values parts separate entries of the source, which are not always exact repeats. Identical values can stand only once. Like-named read-outs stand apart in the source and are kept apart here.

Consider `CSC[C@H]1CN(Cc2c[nH]c3c(=O)[nH]cnc23)C[C@@H]1O` [MT-DADMe-ImmH, (3R,4S)-1-[(9-deazahypoxanthin-9-yl)methyl]-3-hydroxy-4-(methylthiomethyl)pyrrolidine], for which the Ki at PaMTIP [1] (Ki*, second tighter binding phase of slow-onset inhibition, values ± S.E.) was 0.34 ± 0.02 nM; on PaMTIP [1] (setting [5]) it was 0.8 ± 0.1 nM; at PfPNP [2], 0.9 nM.

Compound `CSCC(CO)(CO)NCc1c[nH]c2c(=O)[nH]cnc12` [MT-TrisMe-ImmH, 7-((1,3-dihydroxy-2-(methylthiomethyl)propan-2-ylamino)methyl)-3H-pyrrolo[3,2-d]pyrimidin-4(5H)-one] returned a Ki at PaMTIP [1] (Ki) of 19 nM.

On to `CSCC(CO)NCc1c[nH]c2c(=O)[nH]cnc12` (stereo not shown) [MT-SerMe-ImmH], for which the Ki on PaMTIP [1] (setting [6]) was 0.096 nM.

`Nc1ncnc2c1ncn2[C@@H]1O[C@H](CO)[C@@H](O)[C@H]1O` [adenosine]: the kcat/Km on PfADA was 62000 M⁻¹ s⁻¹. At PaMTIP [3], the “fold decreases of Kcat/Km in comparison with those of MTI” value is reported as 750 fold; the specificity constant (kcat/Km) was determined as 2400 M⁻¹ s⁻¹; the Km turned out to be 23 ± 1 µM; the kcat was 0.0549 s⁻¹ and 0.0549 ± 0.0005 s⁻¹. The kcat/Km on PaMTIP [3] (Table 2) is 2.4 ± 0.1 × 10^3 M^−1s^−1.

In the case of `CSC[C@@]1(O)CN(Cc2c[nH]c3c(=O)[nH]cnc23)C[C@@H]1O` [4′-HO-MT-DADMe-ImmH, (3S,4R)-1-[(9-deazahypoxanthin-9-yl)methyl]-3,4-dihydroxy-4-methylthiomethylpyrrolidine], the “inhibitor potency in words” value against PaMTIP [1] was “nanomolar inhibitor”.

Consider `O=c1[nH]cnc2c([C@@H]3N[C@H](CSc4ccccc4)[C@@H](O)[C@H]3O)c[nH]c12` [PhT-ImmH], for which the mode of inhibition entry on PaMTIP [1] is “slow-onset, tight-binding inhibition”. The Ki on PaMTIP [1] (setting [5]) was found to be 0.66 ± 0.09 nM; at PaMTIP [1] (setting [6]), 0.035 nM.

As to `OC[C@H]1O[C@@H](n2cnc3c(O)ncnc32)[C@H](O)[C@@H]1O` [inosine], the kcat/Km on PfPNP [4] was 360000 M⁻¹ s⁻¹. On PaMTIP [3], the “fold decreases of Kcat/Km in comparison with those of MTI” value stood at 300 fold; the kcat/Km is 6300 M⁻¹ s⁻¹; the Km was determined as 90 ± 20 µM; the kcat was 0.57 s⁻¹ and 0.57 ± 0.04 s⁻¹. Besides, the kcat/Km at PaMTIP [3] (Table 2) is on record as 6 ± 1 × 10^3 M^−1s^−1.

Take `CCCSC[C@H]1CN(Cc2c[nH]c3c(=O)[nH]cnc23)C[C@@H]1O` [PrT-DADMe-ImmH]: the “fold tighter binding / enhanced potency relative to MT-DADMe-ImmH” value at PaMTIP [1] was 4 fold.

By kcat/Km is commonly meant the turnover number divided by the Michaelis constant. As a reminder, the Km is the concentration of substrate that gives half-maximal velocity. A word on the kcat: it is the number of substrate molecules converted per active site and unit of time at saturation.
